The source of these data is patent US20240238201A1, “LIPOSOME CARRIER-BASED MULTI-TARGET COMPLEX, DRUG DELIVERY PLATFORM CONTAINING THE SAME, AND APPLICATION THEREOF” (HANGZHOU XINGAO BIOTECHNOLOGY CO., LTD., priority 2021, published 2024).

Assay [1] concerns mouse melanoma cell line B16F0. Nature of the assay: Subcutaneous graft tumors of mouse melanoma cell line B16F0 in C57BL/6 mice. As to conditions: intraperitoneal once a day for 21 days; for Average tumor weight (g): doses of Table 1, n = 10, mean ± SD; for Average tumor suppression rate (%): doses of Table 1, vs negative control. The class given is in vivo. Here is the method: (§1) Specie and strain: BalB/C ordinary mice and C57BL/6 ordinary mice.
(§2) Route of administration: intraperitoneal injection.
(§3) Dose of the novel multi-target immune complex: 200 μL/each;
(§4) Dosing frequency: once a day for 21 consecutive days;
(§5) Number of animals per group: 10.
(§6) Used herein are mouse colorectal cancer cell line CT26, mouse breast cancer cell line 4T1 and mouse melanoma cell line B16F10, which were purchased from the cell bank of Chinese Academy of Sciences.
(§7) Cancer cells were cultured, passaged, collected at the logarithmic phase of cells, and prepared into a cell suspension at a concentration of (1.0×10^7) per ml. Mice were injected with 0.2 ml of the cell suspension at the axilla of the right forelimb (cell number 2.0×10^6 cells/each), and tumorigenicity was successful in about 8 days.
(§8) These mice were randomly divided into 11 groups equally, namely, group A: negative control group (PBS group), group B: positive control (cGAMP) group (dose: 10 mg/kg), group C: ENPP1-YZ1 group (dose: 5 mg/kg), group D: ENPP1-YZ2 group (dose: 5 mg/kg), group E: anti-PD-L1 VHH group (dose: 2.5 mg/kg), group F: anti-CD47 VHH group (dose: 2.5 mg/kg), group G: complex I group, group H: complex II group, group I: complex III group, group J: complex IV group, and group K: complex V group. The mice were administered once a day for 21 days. After 21 days, the mice were executed, the tumor weight was weighed, and the tumor inhibition rate was calculated by [1-average tumor weight of experimental groups (groups B, C, D, E, F, G, H, I, J, and K)/average tumor weight of group A]×100%.
(§9) The mouse colorectal cancer cell line CT26 was prepared and injected into BalB/C ordinary mice. The mouse breast cancer cell line 4T1 was prepared and injected into BalB/C ordinary mice. The melanoma cell line B16F0 was prepared and injected into C57BL/6 ordinary mice. The anti-tumor effects of different drugs were observed.
(§10) Data were expressed as x±s and processed using a SPSS 10.0 software. One-way ANOVA test was used to compare the significance of the differences in tumor weight between groups, with a significance level a=0.05.

Assay [2] relates to murine colorectal cancer cell CT26. Nature of the assay: Subcutaneous graft tumors of murine colorectal cancer cell CT26 in BalB/C mice. Format: in vivo, mouse. Conditions: intraperitoneal once a day for 21 days; for Average tumor weight (g): doses of Table 1, n = 10, mean ± SD; for Average tumor suppression rate (%): doses of Table 1, vs negative control. How it is done: as §1, §2, §3, §4, §5, §6, §7, §8, §9, §10

For assay [3], the system named is mouse breast cancer cell line 4T1. Nature of the assay: Subcutaneous graft tumors of mouse breast cancer cell line 4T1 in BalB/C mice, with lung metastasis nodules. The class given is in vivo. Conditions: for Average tumor weight (g) / Average tumor suppression rate (%) / Number of metastatic lung nodules: 4T1 in BalB/C mice; for Average tumor weight (g) / Average tumor suppression rate (%): intraperitoneal once a day for 21 days; for Average tumor weight (g): doses of Table 1, n = 10, mean ± SD; for Average tumor suppression rate (%): doses of Table 1, vs negative control; for Number of metastatic lung nodules: lungs after 21 days of dosing, negative control 35; for number of lung tumor nodules compared with the model group (in words): 4T1 breast cancer lung metastasis, lungs fixed with 4% paraformaldehyde. Here is the method: as §1, §2, §3, §4, §5, §6, §7, §8, §9, §10
Dissections were performed on mice that had been executed for the 4T1 breast cancer study, where the lung tissues were carefully peeled off and photographed for observation after fixation with 4% paraformaldehyde. It could be clearly seen that the lungs of the mice in the model group were black and existed multiple white tumor nodules with various sizes on the surface. […] By statistical analysis of the tumor nodules in the lung tissues of mice, the results of the efficacy of inhibiting the lung metastasis of breast cancer cells were shown in Table 3.

In the case of “2-[(4-methyl-(thiazolo[4,5-B]pyridinyl)-2-thio)methyl]-7-fluoro quinazoline-4(3H)-one [ENPP1-YZ2]”, in assay [1], the “Average tumor weight (g)” value was 0.926 ± 0.227 (g) and the “Average tumor suppression rate (%)” value came to 61.2%. In addition, in assay [2], the “Average tumor weight (g)” value was 0.805 ± 0.218 (g) and the “Average tumor suppression rate (%)” value is listed as 64.5%. In assay [3], the “Average tumor weight (g)” value is listed as 0.852 ± 0.223 (g), the “Average tumor suppression rate (%)” value was found to be 62.5% and the “Number of metastatic lung nodules” value is recorded as 20.

Regarding `Nc1nc2c(ncn2[C@@H]2O[C@@H]3COP(=O)(O)O[C@H]4[C@@H](O)[C@H](n5cnc6c(N)ncnc65)O[C@@H]4COP(=O)(O)O[C@@H]2[C@@H]3O)c(=O)[nH]1` [cGAMP, cyclic dinucleotide 2′,3′-cGAMP, reference compound], in assay [1], the “Average tumor weight (g)” value is reported as 0.808 ± 0.137 (g) and the “Average tumor suppression rate (%)” value was 66.1%. For the same molecule, in assay [2], the “Average tumor weight (g)” value is reported as 0.706 ± 0.152 (g) and the “Average tumor suppression rate (%)” value is reported as 68.8%. Further, in assay [3], the “number of lung tumor nodules compared with the model group (in words)” value is listed as “a decrease in the number of tumor nodules”, the “Average tumor weight (g)” value is given as 0.775 ± 0.221 (g), the “Average tumor suppression rate (%)” value is listed as 65.9% and the “Number of metastatic lung nodules” value was 12.

As to `COc1ccc2[nH]c(SCc3nc4cc(F)ccc4c(=O)[nH]3)nc2n1` [ENPP1-YZ1, 2-[(5-methoxy-(imidazo[4,5-B]pyridinyl)-2-thio)methyl]-7-fluoroquinazoline-4(3H)-one], in assay [1], the “Average tumor weight (g)” value was 0.943 ± 0.208 (g) and the “Average tumor suppression rate (%)” value is 60.5%. Besides, in assay [2], the “Average tumor weight (g)” value is on record as 0.816 ± 0.203 (g) and the “Average tumor suppression rate (%)” value is given as 63.9%. For the same molecule, in assay [3], the “Average tumor weight (g)” value was 0.898 ± 0.136 (g), the “Average tumor suppression rate (%)” value is 60.5% and the “Number of metastatic lung nodules” value is 21.

B1: Anti-CD47 VHH: anti-CD47 nanobody, SEQ ID NO: 2, 6His-tagged, expressed in E. coli (protein)
VHH: QVQLVESGGGLVEPGGSLRLSCAASGIIFKINDMGWYRQAPGKRREWVAASTGGDEAIYRDSVKDRFTISRDAKNSVFLQMNSLKPEDTAVYYCTAVISTDRDGTEWRRYWGQGTQVTVSS
modifications: 6His tag
In the case of B1, in assay [1], the “Average tumor weight (g)” value is on record as 1.809 ± 0.217 (g) and the “Average tumor suppression rate (%)” value turned out to be 24.2%. Further, in assay [2], the “Average tumor weight (g)” value was 1.807 ± 0.187 (g) and the “Average tumor suppression rate (%)” value was determined as 20.2%. Besides, in assay [3], the “number of lung tumor nodules compared with the model group (in words)” value was “a small decrease in the number of tumor nodules”, the “Average tumor weight (g)” value is reported as 1.805 ± 0.176 (g), the “Average tumor suppression rate (%)” value was found to be 20.2% and the “Number of metastatic lung nodules” value is 25.

B2: Anti-PD-L1 VHH: anti-PD-L1 nanobody, SEQ ID NO: 1, 6His-tagged, expressed in E. coli (protein)
VHH: QVQLQESGGGLVQTGGSLRLSCAASGSTVSSSMMAWWRQTPGNQRELVALVASGNNTNYVDSVKGRFTVSRDNAKNTMYLQMNSLKPEDTAVYYCRILSVNGIWYWGQGTQVTVSS
modifications: 6His tag; Aritifical sequence
With B2, in assay [1], the “Average tumor weight (g)” value is 1.758 ± 0.212 (g) and the “Average tumor suppression rate (%)” value came out at 26.3%. In assay [2], the “Average tumor weight (g)” value is listed as 1.735 ± 0.206 (g) and the “Average tumor suppression rate (%)” value is 23.4%. In assay [3], the “number of lung tumor nodules compared with the model group (in words)” value is “a small decrease in the number of tumor nodules”, the “Average tumor weight (g)” value is given as 1.752 ± 0.214 (g), the “Average tumor suppression rate (%)” value is given as 22.9% and the “Number of metastatic lung nodules” value was 27.
